Patent US20050180954A1, “Drug for treating bone disorders” (priority 1995, published 2005)

Columns and labels:
[1] = test system: osteoclast like cells from bone marrow cells of mice of C 57 BL/6 strain; assay: Formation of osteoclast like cells from bone marrow cells of mice of C 57 BL/6 strain; type: cell-based, mouse; conditions: Example 2, C 57 BL/6 strain bone marrow cells
Method: The number of viable bone marrow cells was counted using tripam blue dye exclusion test and the bone marrow cells were diluted with α-MEM containing 10% JCS, 10^−8M Vit D3, 10^−7 M dexamethasone to a population density of 1.5×10^6 cells/ml, followed by placing the resulting suspension in each well in 24-well plates in an amount of 0.45 ml/well. To each well, 50 μl of the medium containing varying concentration of IFN was added to make the volume to 0.5 ml/well and culturing was begun. At every three days, 0.4 ml of the culture medium was removed from each well and 0.4 ml of fresh medium (the above-mentioned medium containing the respective concentration of IFN) was added. On Day 8 from the beginning of the culturing, the medium was removed and the cells were fixed with mixed solution of ethyl alcohol and diethyl ether (1:1) and the cells were stained with tartrate resistant acid phosphatase (TRAP), followed by counting TRAP positive multinuclear cells with a phase contrast microscope. […] The inhibition effect of IFNγ was stronger than that of IFNβ. That is, the inhibition concentration IC50 of IFNγ was not more than 0.1 units/ml, and that of IFNβ was 0.2 units/ml.
In place of mice of ddy strain, male mice of C 57 BL/6 of 7 weeks old were used. The mice were exanguinated to death under ether anesthesia and the femur and the tibia of hind legs were collected from each mouse. The connective tissues on the surfaces of the bones were carefully removed, and both ends of each bone were cut off with scissors. The bone marrow cells were suspended in α-MEM containing 10% JCS and the suspension was flushed out through a 25 G needle attached to a syringe to collect the suspension in a centrifugal tube. The collected suspension was washed by centrifugation in the same medium at 2000 rpm at 4° C. for 5 minutes. The precipitated cells were dispersed in the above-mentioned medium and the washing by centrifugation was repeated twice. Formation of osteoclast like cells was measured by the same method as in Example 1.

MC3T3-E1 cells = assay: Quantification of calcium in calcified foci of MC3T3-E1; type: cell-based, mouse; conditions: 1000 units/ml; MC3T3-E1, Day 14
Method: MC3T3-E1 cells were placed in each well in 24-well plates in an amount of 50,000 cells/well and cultured to confluency. The medium was removed and fresh α-MEM containing 10% JCS, 50 μg/ml of L-ascorbic acid and 10 mM β-glycerophosphate was added in an amount of 0.9 ml/well, followed by adding 0.1 ml/well of medium containing varying concentration of IFN. The medium was replaced with IFN-free medium every 4 days. On Day 14, the medium was removed and the cells were lightly washed with Hank's solution. Anhydrous ethanol was added in an amount of 1 ml/well and fixation was carried out at room temperature for 15 minuets. Then the anhydrous ethanol was replaced with fresh anhydrous ethanol in an amount of 1 ml/well and 5 minutes later, each well was dried in the air. Then 1N hydrochloric acid was added in an amount of 1 ml/well and extraction was carried out at room temperature for 30 minutes. The total contents of each well were transferred to an Eppendorf tube and centrifuged at 1800×g at 4° C. for 10 minutes The amount of calcium in the supernatant was measured by Calcium C Test Wako and the amount of inorganic phosphorus in the supernatant was measured by Phospha B Test Wako. […] The IC50 value was as low as about 10 units/ml (FIG. 5).

[2] = Osteoporosis model mice: change in body weight; type: in vivo, mouse; conditions: administration continuously for 4 weeks at a dose exhibiting the therapeutic effect
Method: Female mice of ddy strain of 8 weeks old were divided into 5 groups and experiment was carried out. Bilateral ovariectomy was performed on the mice in 3 groups and sham operation alone was performed on the mice in 2 groups. Thereafter, the mice were raised with normal diet for 1 month, thereby making the state of osteoporosis in the ovariectomized groups. In this model, it is known that the mice become the state of osteoporosis 2 to 3 weeks after the ovariectomy (T. Hosaka et al., ANITEX, Vol. 5, 243, 1992; Miyaura, C. et al., J. Bone Mineral Res., 10, 1365, 1995). From the third weeks from the ovariectomy, murine IFN was subcutaneously administered (100 μl/head/time) once per day, totally 25 times. On Day 30 from the beginning of administration, under ether anesthesia, body weight was measured, blood was collected, and femur was collected and dry bone weight thereof was measured for each mouse.
It is well-known that the increase and decrease in the amount of urinary D-Pyr excreted in urine, which is a crosslinked substance of bone collagen, is an excellent marker reflecting the degree of degradation of bone collagen, that is, the degree of bone resorption (C. P. Jerome et al., Bone and Mineral, 19, 117-125, 1992). For measurement of urinary D-Pyr, a commercially available kit (PYRILINKS-D Assay, METRA BIOSYSTEMS) was used. […]

## MuIFNβ: murine interferon β, Lot M-0034, prepared by Toray Industries, Inc. by genetic engineering technique
[1]
  inhibition of formation of osteoclast like cells: strongly inhibited formation of osteoclast like cells
[1]; Day 8
  IC50 of formation inhibition of osteoclast like cells: 0.1 units/ml
MC3T3-E1 cells
  calcium deposition smaller than the control: 20%
[2]
  change in body weight: no problematic change in body weight was observed in any group
